Our source for the Odor description values is US20250243427A1, “PRECURSORS OF PHENOLIC FRAGRANT COMPOUNDS” (GIVAUDAN SA, priority 2021, published 2025).

This assay in a line: Odor description on paper blotter. Particulars: 1% solution in EtOH on paper blotter, 24 h.
As to `COc1cc(C=O)ccc1OCCC=C(C)C` [Example 37, 3-methoxy-4-((4-methylpent-3-en-1-yl)oxy)benzaldehyde], the Odor description result is on record as “powdery, vanilla, creamy”.

With `CC/C=C\CCOc1ccc(C=NOC)cc1OCC` [Example 47, 3-ethoxy-4-(((Z)-hex-3-en-1-yl)oxy)benzaldehyde O-methyl oxime], the Odor description entry is “vanilla (sweet, gourmand, carnation floral, chestnut cream)”. The value for `C=CCC(Oc1ccc(C=O)cc1OCC)C(=O)OCC` (stereo not drawn) [Example 61, ethyl 2-(2-ethoxy-4-formylphenoxy)pent-4-enoate] was “sweet powdery gourmand (vanilla, coffee) creamy (vanilla, milky)”; that for `CCc1ccc(OCCC=C(C)C)cc1` [Example 42, 1-ethyl-4-((4-methylpent-3-en-1-yl)oxy)benzene] was “animalic, leathery, phenolic, paracresol”; that for `C=CCC(CCC)Oc1ccc(C=O)cc1OCC` (stereo not drawn) [Example 19, 3-ethoxy-4-(hept-1-en-4-yloxy)benzaldehyde] was “powdery (dry, vanilla) fruity (metallic)”. Then `CC/C=C\CCOc1ccccc1OCC` [Example 39, (Z)-1-ethoxy-2-(hex-3-en-1-yloxy)benzene], with “medicinal, phenolic, vanilla”; and `CC(C)=CCCOc1ccc(C)cc1` [Example 44, 1-methyl-4-((4-methylpent-3-en-1-yl)oxy)benzene], with “animalic, leathery, phenolic, paracresol”; and `CC=CCCOc1cc(C)c(C(=O)OC)c(O)c1C` [Example 63, methyl 2-hydroxy-3,6-dimethyl-4-(pent-3-en-1-yloxy)benzoate], with “mossy, evernyl, dry powdery”.

As for `CCOc1cc(C=O)ccc1OCCC=C(C)CC` [Example 40, 3-ethoxy-4-((4-methylhex-3-en-1-yl)oxy)benzaldehyde], the Odor description result is on record as “powdery, vanilla, creamy, chocolate, slightly butyric”. Then `COc1cc(C)cc(OCCC=C(C)C)c1` [Example 43, 1-methoxy-3-methyl-5-((4-methylpent-3-en-1-yl)oxy)benzene], with “animalic, leathery, phenolic, paracresol, green, hay, rooty”; and `C=CCCOc1ccc(CC=C)cc1OC` [Example 13, 4-allyl-1-(but-3-en-1-yloxy)-2-methoxybenzene], with “slightly spicy (iso eugenol) fruity (berry)”; and `CC/C=C/CCOc1ccc(C=O)cc1OCC` [Example 2, (E)-3-ethoxy-4-(hex-3-en-1-yloxy)benzaldehyde], with “powdery (vanilla, creamy) slightly fruity (raspberry, strawberry)”.

In the case of `C=CCC(C=CC)Oc1ccc(CCC(C)=O)cc1` (stereo not drawn) [Example 26, 4-(4-(hepta-1,5-dien-4-yloxy)phenyl)butan-2-one], the Odor description result is given as “sweet (icing sugar cristal) raspberry”. Then `C=CCC(CC)Oc1ccc(CCC(C)=O)cc1` (stereo not drawn) [Example 25, 4-(4-(hex-5-en-3-yloxy)phenyl)butan-2-one], with “sweet (icing sugar cristal) raspberry”. `C=C(C)CCOc1ccc(CCC(C)=O)cc1` [Example 16, 4-(4-((3-methylbut-3-en-1-yl)oxy)phenyl)butan-2-one]: the Odor description entry was “fruity (raspberry) sweet”. In the case of `CC/C=C\CCOc1ccc(COCC)cc1OCC` [Example 48, (Z)-2-ethoxy-4-(ethoxymethyl)-1-(hex-3-en-1-yloxy)benzene], the Odor description entry was “spicy (eugenol, smokey), powdery (vanilla)”.

For “3-ethoxy-4-((4-methylhepta-3,6-dien-1-yl)oxy)benzaldehyde and 3-ethoxy-4-((4-methylhepta-3,5-dien-1-yl)oxy)benzaldehyde [Example 29]”, the Odor description result is “powdery (vanilla) sweet (sugary)”.

In the case of `C=CCC(CCC)Oc1ccc(CCC(C)=O)cc1` (stereo not drawn) [Example 21, 4-(4-(hept-1-en-4-yloxy)phenyl)butan-2-one], the Odor description entry is reported as “raspberry”. Then `CCOc1cc(C=O)ccc1OC1CC=CCC1` (stereo not drawn) [Example 51, 4-(cyclohex-3-en-1-yloxy)-3-ethoxybenzaldehyde], with “powdery (vanilla)”; and `C=CCC(C=C(C)C)Oc1ccc(CCC(C)=O)cc1` (stereo not drawn) [Example 27, 4-(4-((6-methylhepta-1,5-dien-4-yl)oxy)phenyl)butan-2-one], with “fruity (powdery, sweet, raspberry)”.

On to `CCOc1cc(C=O)ccc1OCCC=CCC(C)C` [Example 31, 3-ethoxy-4-((6-methylhept-3-en-1-yl)oxy)benzaldehyde], for which the Odor description result is on record as “powdery, vanilla, green, hazelnut, chocolate”.

Regarding `CCCC/C=C\CCOc1ccc(C=O)cc1OCC` [Example 17, (Z)-3-ethoxy-4-(oct-3-en-1-yloxy)benzaldehyde], the Odor description entry is “vanilla (powdery, spicy, creamy)”.

For `CCC(C)=CCCOc1ccc(CCC(C)=O)cc1` [Example 36, 4-(4-((4-methylhex-3-en-1-yl)oxy)phenyl)butan-2-one], the Odor description entry is “fruity, raspberry, sweet, powdery”. Consider `C=CCCOc1cc(C)c(C(=O)OC)c(O)c1C` [Example 14, methyl 4-(but-3-en-1-yloxy)-2-hydroxy-3,6-dimethylbenzoate], for which the Odor description result is listed as “slightly mossy”. For `COC(=O)c1c(C)cc(OCCC=C(C)C)c(C)c1O` [Example 62, methyl 2-hydroxy-3,6-dimethyl-4-((4-methylpent-3-en-1-yl)oxy)benzoate], the Odor description result is “mossy (evernyl)”. The value for `C=CCCOc1ccc(C=O)cc1OCC` [Example 12, 4-(but-3-en-1-yloxy)-3-ethoxybenzaldehyde] was “powdery (vanilla, creamy, dough)”; that for “(Z)-2-ethoxy-1-(hex-3-en-1-yloxy)-4-methylbenzene and (Z)-1-ethoxy-2-(hex-3-en-1-yloxy)-4-methylbenzene [Example 35]” was “spicy, eugenol, clove, phenolic, vanilla, medicinal”; that for `CC/C=C\CCOc1ccc(COC)cc1OCC` [Example 49, (Z)-2-ethoxy-1-(hex-3-en-1-yloxy)-4-(methoxymethyl)benzene] was “spicy (eugenol, smokey), powdery (vanilla)”. Take `CCOc1cc(C=O)ccc1OCC/C=C/C(C)C` [Example 32, (E)-3-ethoxy-4-((5-methylhex-3-en-1-yl)oxy)benzaldehyde]: the Odor description entry was “powdery, vanilla, green, hazelnut, chocolate”.

For the compound `CCOc1cc(C=O)ccc1OCCC=CC(=O)OC` [Example 60, methyl 5-(2-ethoxy-4-formylphenoxy)pent-2-enoate], the Odor description entry is listed as “sweet powdery gourmand, vanilla, coffee, creamy, vanilla, milky”. Then `C=CCC(C=C(C)C)Oc1ccc(C=O)cc1OCC` (stereo not drawn) [Example 24, 3-ethoxy-4-((6-methylhepta-1,5-dien-4-yl)oxy)benzaldehyde], with “powdery (creamy, vanilla)”; and `C=CCC(CC=C)Oc1ccc(C=O)cc1OCC` [Example 22, 3-ethoxy-4-(hepta-1,6-dien-4-yloxy)benzaldehyde], with “powdery (creamy, vanilla)”; and `CCC=CCCOc1cc(C)ccc1C(C)C` [Example 30, 2-(hex-3-en-1-yloxy)-1-isopropyl-4-methylbenzene], with “aromatic, thymol, menthol”. Then `C=CCC(C)(C)Oc1ccc(C=O)cc1OCC` [Example 28, 3-ethoxy-4-((2-methylpent-4-en-2-yl)oxy)benzaldehyde], with “powdery (vanilla)”.

Take `CCOc1cc(C=O)ccc1OCCC=CCCOc1ccc(C=O)cc1OCC` [Example 52, 4,4′-(hex-3-ene-1,6-diylbis(oxy))bis(3-ethoxybenzaldehyde)]: the Odor description entry is reported as “powdery (vanilla)”. `CC/C=C\CCOc1ccc(COC(C)C)cc1OCC` [Example 50, (Z)-2-ethoxy-1-(hex-3-en-1-yloxy)-4-(isopropoxymethyl)benzene]: the Odor description entry was “spicy (eugenol, smokey), powdery (vanilla), green”. As for `CCCC(C)=CCCOc1ccc(C=O)cc1OC` [Example 38, 3-methoxy-4-((4-methylhept-3-en-1-yl)oxy)benzaldehyde], the Odor description result is on record as “powdery, vanilla, chocolate”. Then `CC/C=C\CC(C)Oc1ccc(CCC(C)=O)cc1` (stereo not drawn) [Example 5, (Z)-4-(4-(hept-4-en-2-yloxy)phenyl)butan-2-one], with “raspberry (fruity, ripe, fresh)”; and `C=CCC(CC=C)Oc1ccc(CCC(C)=O)cc1` [Example 23, 4-(4-(hepta-1,6-dien-4-yloxy)phenyl)butan-2-one], with “fruity (raspberry)”. In the case of `CC/C=C/CCOc1ccc(CCC(C)=O)cc1` [Example 7, (E)-4-(4-(hex-3-en-1-yloxy)phenyl)butan-2-one], the Odor description result was “raspberry”. The value for `C=C(C)CCOc1ccc(C=O)cc1OCC` [Example 15, 3-ethoxy-4-((3-methylbut-3-en-1-yl)oxy)benzaldehyde] was “mild, powdery, spicy”; that for `CCCc1cccc(OCCC=C(C)C)c1` [Example 45, 1-((4-methylpent-3-en-1-yl)oxy)-3-propylbenzene] was “animalic, leathery, phenolic, paracresol, green, hay, rooty”. In the case of `CC/C=C\CCOc1ccccc1C(=O)CC` [Example 46, (Z)-1-(2-(hex-3-en-1-yloxy)phenyl)propan-1-one], the Odor description entry is recorded as “green, wintergreen”. For `CC/C=C\CC(C)Oc1ccc(C=O)cc1OCC` (stereo not drawn) [Example 4, (Z)-3-ethoxy-4-(hept-4-en-2-yloxy)benzaldehyde], the Odor description result is recorded as “sweet (brown sugar) powdery (vanillin, chocolate, ice cream)”. Then `CC/C=C\CCOc1cc(C)cc(OC)c1` [Example 41, (Z)-1-(hex-3-en-1-yloxy)-3-methoxy-5-methylbenzene], with “green, bell pepper”.
